How the values were obtained:
[1] = The drug is tested on Collinsella intestinalis strain: DSM13280 for biotransformation. The drug concentrations were measured before and after a 12-h incubation by liquid-chromatography-coupled mass spectrometry (LC–MS); settings: 2 µM
[2] = The drug is tested on Bacteroides coprophilus strain: DSM18228 for biotransformation. The drug concentrations were measured before and after a 12-h incubation by liquid-chromatography-coupled mass spectrometry (LC–MS); settings: 2 µM
[3] = The drug is tested on Bacteroides finegoldii strain: DSM17565 for biotransformation. The drug concentrations were measured before and after a 12-h incubation by liquid-chromatography-coupled mass spectrometry (LC–MS); settings: 2 µM
[4] = The drug is tested on Bacteroides fragilis strain: HMW610 for biotransformation. The drug concentrations were measured before and after a 12-h incubation by liquid-chromatography-coupled mass spectrometry (LC–MS); settings: 2 µM
[5] = The drug is tested on Anaerococcus hydrogenalis strain: DSM7454 for biotransformation. The drug concentrations were measured before and after a 12-h incubation by liquid-chromatography-coupled mass spectrometry (LC–MS); settings: 2 µM
[6] = The drug is tested on Blautia luti strain: DSM14534 for biotransformation. The drug concentrations were measured before and after a 12-h incubation by liquid-chromatography-coupled mass spectrometry (LC–MS); assay type: ADME; design: dose 2 uM, timepoint 0 vs 12 hours; settings: 2 µM
[7] = The drug is tested on Clostridium sporogenes strain: ATCC15579 for biotransformation. The drug concentrations were measured before and after a 12-h incubation by liquid-chromatography-coupled mass spectrometry (LC–MS); settings: 2 µM
[8] = The drug is tested on Coprococcus comes strain: ATCC27758 for biotransformation. The drug concentrations were measured before and after a 12-h incubation by liquid-chromatography-coupled mass spectrometry (LC–MS); assay type: ADME; design: dose 2 uM, timepoint 0 vs 12 hours; settings: 2 µM
[9] = The drug is tested on Dorea formicigenerans strain: ATCC27755 for biotransformation. The drug concentrations were measured before and after a 12-h incubation by liquid-chromatography-coupled mass spectrometry (LC–MS); settings: 2 µM
[10] = The drug is tested on Eubacterium ventriosum strain: ATCC27560 for biotransformation. The drug concentrations were measured before and after a 12-h incubation by liquid-chromatography-coupled mass spectrometry (LC–MS); assay type: ADME; design: dose 2 uM, timepoint 0 vs 12 hours; settings: 2 µM
[11] = The drug is tested on Ruminococcus gnavus strain: ATCC29149 for biotransformation. The drug concentrations were measured before and after a 12-h incubation by liquid-chromatography-coupled mass spectrometry (LC–MS); settings: mediterraneibacter gnavus, 2 µM
[12] = The drug is tested on Subdoligranulum variabile strain: DSM15176 for biotransformation. The drug concentrations were measured before and after a 12-h incubation by liquid-chromatography-coupled mass spectrometry (LC–MS); settings: 2 µM
[13] = bacteroides intestinalis, 12 h, 2 µM
Description: The drug is tested on Bacteroides intestinalis strain: DSM17393 for biotransformation. The drug concentrations were measured before and after a 12-h incubation by liquid-chromatography-coupled mass spectrometry (LC–MS)

[14] = bacteroides thetaiotaomicron, 12 h, 2 µM
Description: The drug is tested on Bacteroides thetaiotaomicron strain: 7330 for biotransformation. The drug concentrations were measured before and after a 12-h incubation by liquid-chromatography-coupled mass spectrometry (LC–MS)

[15] = segatella copri, 12 h, 2 µM
Description: The drug is tested on Prevotella copri strain: DSM18205 for biotransformation. The drug concentrations were measured before and after a 12-h incubation by liquid-chromatography-coupled mass spectrometry (LC–MS)

[16] = roseburia intestinalis, 12 h, 2 µM
Description: The drug is tested on Roseburia intestinalis strain: L1-82 for biotransformation. The drug concentrations were measured before and after a 12-h incubation by liquid-chromatography-coupled mass spectrometry (LC–MS)

[17] = akkermansia muciniphila, 12 h, 2 µM
Description: The drug is tested on Akkermansia muciniphila strain: ATCC BAA-835 for biotransformation. The drug concentrations were measured before and after a 12-h incubation by liquid-chromatography-coupled mass spectrometry (LC–MS)

[18] = The drug is tested on Clostridium asparagiforme strain: DSM15981 for biotransformation. The drug concentrations were measured before and after a 12-h incubation by liquid-chromatography-coupled mass spectrometry (LC–MS); assay type: ADME; design: dose 2 uM, timepoint 0 vs 12 hours; settings: enterocloster asparagiformis, 2 µM
[19] = bacteroides stercoris, 12 h, 2 µM
Description: The drug is tested on Bacteroides stercoris strain: ATCC43183 for biotransformation. The drug concentrations were measured before and after a 12-h incubation by liquid-chromatography-coupled mass spectrometry (LC–MS)

[20] = limosilactobacillus reuteri cf48-3a, 12 h, 2 µM
Description: The drug is tested on Lactobacillus reuteri CF48-3A strain: BEI HM-102 for biotransformation. The drug concentrations were measured before and after a 12-h incubation by liquid-chromatography-coupled mass spectrometry (LC–MS)

Structure (SMILES)	Bacterial Biotransformation [1]	Bacterial Biotransformation [2]	Bacterial Biotransformation [3]	Bacterial Biotransformation [4]	Bacterial Biotransformation [5]	Bacterial Biotransformation [6]	Bacterial Biotransformation [7]	Bacterial Biotransformation [8]	Bacterial Biotransformation [9]	Bacterial Biotransformation [10]	Bacterial Biotransformation [11]	Bacterial Biotransformation [12]	Bacterial Biotransformation [13]	Bacterial Biotransformation [14]	Bacterial Biotransformation [15]	Bacterial Biotransformation [16]	Bacterial Biotransformation [17]	Bacterial Biotransformation [18]	Bacterial Biotransformation [19]	Bacterial Biotransformation [20]
CCN(CC)CCNC(=O)c1ccc(NC(C)=O)cc1 [ACECAINIDE]	Compound NOT metabolized	Compound NOT metabolized	Compound NOT metabolized	Compound NOT metabolized	Compound NOT metabolized	Compound NOT metabolized	Compound NOT metabolized	Compound NOT metabolized	Compound NOT metabolized	Compound NOT metabolized	Compound NOT metabolized	Compound NOT metabolized	Compound NOT metabolized	Compound NOT metabolized	Compound NOT metabolized	Compound NOT metabolized	Compound NOT metabolized	–	–	–
CCCC1O[C@@H]2C[C@H]3[C@@H]4CCC5=CC(=O)C=C[C@]5(C)[C@H]4[C@@H](O)C[C@]3(C)[C@]2(C(=O)CO)O1 (stereo partly specified) [BUDESONIDE]	Compound NOT metabolized	Compound NOT metabolized	Compound NOT metabolized	Compound metabolized	Compound NOT metabolized	Compound NOT metabolized	–	Compound NOT metabolized	Compound NOT metabolized	Compound NOT metabolized	Compound NOT metabolized	–	Compound NOT metabolized	Compound NOT metabolized	Compound NOT metabolized	–	Compound NOT metabolized	Compound metabolized	Compound metabolized	Compound NOT metabolized
O=C(O)COCCN1CCN(C(c2ccccc2)c2ccc(Cl)cc2)CC1 (stereo unspecified) [CETIRIZINE]	–	Compound metabolized	Compound metabolized	Compound metabolized	Compound NOT metabolized	Compound NOT metabolized	Compound NOT metabolized	Compound NOT metabolized	Compound NOT metabolized	Compound NOT metabolized	Compound NOT metabolized	Compound metabolized	Compound metabolized	Compound metabolized	Compound metabolized	Compound NOT metabolized	Compound NOT metabolized	–	Compound metabolized	Compound NOT metabolized
CN/C(=N/CCSCc1nc[nH]c1C)NC#N [CIMETIDINE]	Compound NOT metabolized	–	–	Compound NOT metabolized	Compound NOT metabolized	Compound NOT metabolized	–	Compound NOT metabolized	Compound NOT metabolized	Compound NOT metabolized	Compound NOT metabolized	–	Compound NOT metabolized	–	–	Compound NOT metabolized	Compound NOT metabolized	Compound NOT metabolized	Compound NOT metabolized	Compound NOT metabolized
Clc1ccc(Cn2c(CN3CCCC3)nc3ccccc32)cc1 [CLEMIZOLE]	Compound NOT metabolized	–	Compound NOT metabolized	Compound NOT metabolized	Compound NOT metabolized	Compound NOT metabolized	Compound NOT metabolized	Compound NOT metabolized	Compound NOT metabolized	Compound NOT metabolized	Compound NOT metabolized	Compound NOT metabolized	Compound NOT metabolized	Compound NOT metabolized	Compound NOT metabolized	Compound NOT metabolized	–	–	Compound NOT metabolized	Compound NOT metabolized
CC(C)(C)NCC(O)c1cc(Cl)c(N)c(Cl)c1 (stereo unspecified) [CLENBUTEROL]	Compound NOT metabolized	Compound NOT metabolized	Compound NOT metabolized	Compound NOT metabolized	Compound NOT metabolized	Compound NOT metabolized	Compound NOT metabolized	Compound NOT metabolized	Compound NOT metabolized	Compound NOT metabolized	Compound NOT metabolized	Compound NOT metabolized	Compound NOT metabolized	–	Compound NOT metabolized	Compound NOT metabolized	Compound NOT metabolized	–	Compound NOT metabolized	Compound NOT metabolized
C[N+]12CCC(CC1)C(OC(=O)C(O)(c1ccccc1)c1ccccc1)C2.[Br-] (stereo unspecified) [CLIDINIUM BROMIDE]	Compound NOT metabolized	Compound NOT metabolized	Compound NOT metabolized	Compound NOT metabolized	Compound NOT metabolized	Compound NOT metabolized	Compound NOT metabolized	Compound NOT metabolized	Compound NOT metabolized	Compound NOT metabolized	Compound NOT metabolized	Compound NOT metabolized	Compound NOT metabolized	Compound NOT metabolized	Compound NOT metabolized	Compound NOT metabolized	Compound NOT metabolized	–	Compound NOT metabolized	–
CCOc1cc(CC(=O)N[C@@H](CC(C)C)c2ccccc2N2CCCCC2)ccc1C(=O)O [REPAGLINIDE]	Compound NOT metabolized	Compound metabolized	Compound metabolized	Compound metabolized	Compound NOT metabolized	Compound NOT metabolized	–	Compound NOT metabolized	Compound NOT metabolized	Compound NOT metabolized	Compound NOT metabolized	–	Compound metabolized	Compound metabolized	Compound NOT metabolized	Compound NOT metabolized	Compound NOT metabolized	Compound metabolized	Compound metabolized	–
